Data as given in patent publication US6413508B1, “Green leaf volatiles as synergists for insect pheromones” (The United States of America as represented by the …, priority 1988, dated 2002).

Key:
[1] = system: Boll Weevils; assay: Competitive field test with released weevils, triangular trap array; type: in vivo, Anthonomus grandis
Description: Two series of field tests were performed involving released boll weevils, in which grandlure was placed in competition with grandlure + the synergist. In the first series of experiments, a triangular array of traps was used. One trap was placed at each corner of a 20 m equilateral triangle (total of three traps). The three treatments released in this triangular array of traps were: 1) grandlure 3 mg; 2) grandlure 3 mg+synergist 100 mg; and 3) synergist 100 mg. The three synergists tested in these experiments were: trans-2-hexen-1-ol, 1-hexanol, and cis-3-hexen-1-ol. Cigarette filters were used to release the experimental odorants. One hundred insets (50 males and 50 females) were released along a line 20 m from each side of the triangle (300 insects total) at ca. 1000 hrs prior to baiting of the traps at 1200 hrs. Traps were check and insects were removed at 1400 hrs, 1600 hrs, and 1800 hrs, the times at which the test was terminated.

[2] = system: Arizona boll weevils; assay: Arizona third field experiment, traps around 20 cotton fields; type: in vivo, Anthonomus grandis; conditions: grandlure 5 mg + trans-2-hexen-1-ol 10 mg
Description: In a third field experiment, 20 cotton fields were selected. Three traps were placed at least 100 m apart along the edge of each field (60 traps total). The three traps were baited with one of the following treatments: 1) a 10-mg grandlure “Hercon” wafer; 2) 5 mg of grandlure in the same “Hercon” formulation; 3) the 5-mg grandlure
formulation+10 mg of trans-2-hexen-1-ol. The traps were checked daily and weevils were removed for the next 2 days.

[3] = system: Boll Weevils; assay: Competitive field test with released weevils, four trap array; type: in vivo, Anthonomus grandis
Text: The second series of experiments involved an array of four traps. […] The two treatments being tested simultaneously in this competitive arrangement were placed alternately in the traps, i.e., the two traps baited with the same treatment were located diagonally from each other. Odorants diluted in hexane were released from glass capillaries placed in small vials in a container in each trap. […] Traps were then immediately baited. In each test, traps were checked and insects were removed at 1530 hrs and 1700 hrs on the day of release, and before 0900 hrs the next day (the time at which the test was terminated) in order to remove those insects which might have responded prior to darkness on the day of release.

[4] = system: Single Olfactory Cells Responsive to Volatiles Emanating from a Crushed Cotton Square; assay: Single-cell electrophysiology: action potentials from single olfactory cells; type: cell-based, Anthonomus grandis
Text: Single-cell recording techniques are described in detail elswhere [Dickens, Mitt. Schweiz. Entomol. Ges. 52: 203 (1979); Dickens et al., J. Chem. Ecol. 10: 583 (1984)]. In brief, microelectrodes used for recordings were constructed from 50.8 μm diameter tungsten wire electrolytically sharpened to a tip of 1-2 μm. The recording electrode was positioned under optical control (150-200 X) with a Leitz high-power micromanipulator near either the base of one of the three sensory bands encircling the club, or the base of an individual sensillum just distal to each sensory band region. The ground electrode was inserted in either the rostrum or distal end of the scape. Action potentials were amplified and conditioned by a Grass P-15 preamplifier and Tektronix 5A22N amplifier prior to visualization on a Tektronix 5223 digitizing oscilloscope. The signal then passed through a Teac R51-D data recorder for recording on cassette tapes prior to visualization on a Tektronix 5111 analog oscilloscope. Data were photographed from the analog oscilloscope with a Tektronix C-5C oscilloscope camera. Trains of action potentials were counted visually.
Upon obtaining a single cell preparation, odorous stimuli were presented every 3 min. […] The first two stimuli tested were volatiles emanating from 1 μg of grandlure, followed by volatiles emanating from a crushed cotton square. These two stimuli served to determine whether the cell was activated by the attractive pheromone of the boll weevil and/or volatiles emanating from its food source.

[5] = system: Over-Wintered Boll Weevils; assay: Competitive field test with over-wintered boll weevils, 3 weeks; type: in vivo, Anthonomus grandis; conditions: trans-2-hexen-1-ol 10 mg changed weekly, grandlure Hercon wafer 2.5 mg kept 3 wk
Description: The efficacy of the synergist in enhancing response of over-wintered boll weevils to grandlure was evaluated during the first 3 wks of May 1988, prior to the planting of cotton. In this experiment, the synergist trans-2-hexen-1-ol at 10 mg was released from a cigarette filter, in combination with a Hercon wafer formulation of grandlure at 2.5 mg. The grandlure formulation remained in the trap for the entire 3-wk period, while the cigarette filter containing the synergist was changed each week. During both the first and second weeks, trap captures increased for both the pheromone alone and for the pheromone+the synergist, presumably reflecting increasing numbers of boll weevils emerging from over-wintering sites (Table VII). However, while trap captures continued to increase for the pheromone+synergist during the third week, the number of boll weevils captured by the pheromone alone declined.

[6] = system: Arizona boll weevils; assay: Arizona initial field experiment, 24 traps in a straight line, four treatments; type: in vivo, Anthonomus grandis; conditions: 1, 10, 100 mg with grandlure 1 mg
Description: Since boll weevils in this region differ genetically from those in the southeastern United States [Burke, Texas Agric. Exp. Sta. Tech. Rep., 152 pp. (1968)], these tests were performed to determine if green leaf volatiles would also enhance capture of Arizona boll weevils in traps baited with the aggregation pheromone.
In the initial field experiment, 24 traps were placed 30 m apart in a straight line along a road near Phoenix and were baited with four different treatments: 1) grandlure 1 mg; 2) grandlure 1 mg+trans-2-hexen-1-ol 1 mg; 3) grandlure 1 mg+trans-2-hexen-1-ol 10 mg; 4) grandlure 1 mg+trans-2-hexen-1-ol 100 mg. All compounds were released from cigarette filters after mixing in a solution to retard their rate of release, as previously described [McKibben et al., supra]. Treatments were arranged in six blocks with the four treatments randomized within each block. Traps were checked the next day.

[7] = system: Boll Weevils; assay: Competitive field tests in Mississippi cotton fields, 4-week test period; type: in vivo, Anthonomus grandis; conditions: 10 mg and 100 mg, P<0.01, paired t-test
Description: Three cotton fields were used in this study to determine the effectiveness of trans-2-hexen-1-ol in synergizing grandlure in a practical situation. The experimental design consisted of placing four traps at the corners of a 20-m square within a cotton field of ca. 1 acre. Four additional traps were placed a few meters outside the cotton field, located near imaginary diagonal lines extending through the corners of the square within the field. Each trap contained a cigarette filter with 1 mg of grandlure. Cigarette filters containing trans-2-hexen-1-ol were placed alternately in the traps. The result resembled an “X” array of traps placed across each field with each arm of the “X” consisting of four traps, two within and two outside of the field. Traps within one arm contained grandlure 1 mg alone; those within the other arm were baited with grandlure 1 mg+trans-2-hexen-1-ol at a particular dosage. Only one dosage of the synergist occurred in each field. Dosages of trans-2-hexen-1-ol tested were: 1 mg, 10 mg, and 100 mg. Traps were freshly baited each week and checked daily at 1500 hrs for 3 days and at the end of the week.

[8] = volatiles emanating from 1 μg of odorant, cell responsive to crushed cotton square

Question: How did the “% Total” value ([1]; grandlure 3 mg vs trans-2-hexen-1-ol 100 mg vs both) turn out when CCC/C=C/CO [trans-2-hexen-1-ol] was run?
Answer: 5.9%

Question: What about the “Mean Trap Capture” value ([1]; grandlure 3 mg vs trans-2-hexen-1-ol 100 mg vs both, three replicates) of the same compound?
Answer: 1.3 A

Question: And the “activity alone in competition with the other treatments” value ([1]; triangular array, 100 mg alone)?
Answer: relatively inactive

Question: What about the “attraction of grandlure on addition of the compound, relative to grandlure alone” value ([1]; triangular array, grandlure 3 mg, synergist 100 mg) of the same compound?
Answer: significantly increased

Question: What about the “effect of addition to grandlure on attractiveness over the 10-mg grandlure treatment” value [2] of the same compound?
Answer: enhanced its attractiveness

Question: What about the “trap capture in combination with grandlure (0.8 mg) in competition with grandlure (0.8 mg) alone” value ([3]; 0.1 mg, P<0.10, paired t-test) of the same compound?
Answer: increased trap capture

Question: What about the “synergism with grandlure (0.8 mg) in competition with grandlure (0.8 mg) alone” value ([3]; 1.0 mg of the compound) of the same compound?
Answer: even more apparent

Question: And the “effectiveness in combination with grandlure (0.8 mg) vs the combination with 1-hexanol” value ([3]; each presented with grandlure 0.8 mg in a competitive experiment)?
Answer: more effective

Question: And the “response of cells activated by volatiles from the crushed cotton square” value ([4]; single olfactory cells)?
Answer: activated

Question: And the “Response in impulses/initial 500 msec, Cell #1” value [4, 8]?
Answer: 83 impulses/initial 500 msec

Question: And the “Response in impulses/initial 500 msec, Cell #2” value [4, 8]?
Answer: 67 impulses/initial 500 msec

Question: And the “Response in impulses/initial 500 msec, Cell #3” value [4, 8]?
Answer: 50 impulses/initial 500 msec

Question: And the “Response in impulses/initial 500 msec, Cell #4” value [4, 8]?
Answer: 33 impulses/initial 500 msec

Question: And the “effect of the synergist on effectiveness of the pheromone with time” value [5]?
Answer: extend the effectiveness of the pheromone

Question: What about the “effect of addition on trap capture over grandlure alone” value [6] of the same compound?
Answer: enhanced trap capture

Question: And the “weevils captured in combination with grandlure 1 mg vs grandlure alone at 1 mg” value [7]?
Answer: captured more weevils of both sexes
